This is an account of results in patent US20070071681A1, “Apparatus and method for computer modeling type 1 diabetes” (Entelos, Inc., priority 2005, published 2007).

Read-outs that look alike come from different tables or passages of the source.

One experiment relates to NOD mouse. The conditions noted are these: cited from earlier work; for Protection in the NOD mouse: protective therapeutic interventions suggested to depend on NK cell activities; for Protection from diabetes: pre-diabetic NOD mice.
The test system of the next experiment is BB rats. The following applies: cited from earlier work.
Experiment [1] concerns average virtual NOD mouse. The experiment is described as follows: Simulation of therapy protocols in the average virtual NOD mouse (computer model of type 1 diabetes). The conditions noted are these: expectation from published data. The text has this:
One application of a NOD mouse type 1 diabetes model is to improve understanding of type 1 diabetes pathogenesis in the NOD mouse. Model development therefore focused on islet β cell autoimmunity and tolerance, as well as related mechanisms and interventions. To provide for general immunologic function and not only progression to diabetes, the development effort included representation of several NOD mouse phenotypes. The first phenotype was an average diabetic virtual mouse. […] Typically, a simulation of the average virtual mouse concludes shortly after diabetes diagnosis, which is consistent with post-diabetic sacrifice of NOD mice in the laboratory. […] Additional virtual mice, each with different clinical behaviors and/or underlying pathophysiologies, have also been generated. Similarly, development of modals of type 1 diabetes in other mammals, such as humans, can include the development of various virtual patients representing normal animals or animals having varying degrees of severity or progression of type 1 diabetes.
Because diabetes is typically assessed by measuring blood or urinary glucose, blood glucose levels were represented in the model's clinical read-out. Hyperglycemia (a diabetes indicator) was defined as a glucose level in excess of a commonly used standard (e.g., 200, 250, 300, 350 mg/dl). Glucose control was regulated based on a mathematical relationship describing interactions between blood insulin and glucose concentrations.
These include (i) dynamics of diabetes onset, (ii) dynamics of pancreatic lymph node (PLN) lymphocyte activation and expansion, and (iii) dynamics of islet infiltrate.
Numerous interventions have been tested in the NOD mouse. A major purpose of implementing selected interventions is to provide constraints for the virtual mouse, where constraints are defined as additional behavioral criteria that the virtual mouse should reproduce in a manner substantially consistent with published data. […]

Experiment [2] relates to recent onset diabetic patients. The conditions noted are these: cited from earlier work; for Therapeutic response: insulin tolerization.

With `CN(C(=O)c1c(O)c2ccccc2n(C)c1=O)c1ccccc1` [linomide], in the experiment on NOD mouse, the “Protection in the NOD mouse” value was “protection”.

On to `NC(=O)c1cccnc1` [nicotinamide], for which the Protection from diabetes result is recorded as “not” with BB rats and “protection” in the experiment on NOD mouse.

As to “Exendin-4: exendin-4; enhances glucose-dependent insulin secretion”, in the experiment on NOD mouse (Exendin-4, Ogawa 2004, 7-17 days after diagnosis of diabetes, 12 nmol/kg for 4 consec. days twice), the Incidence result is given as “No remission”. In addition, in experiment [1] (Exendin-4, Ogawa 2004 protocol), the “Expected virtual mouse outcome” value is reported as “No remission”.

As to “Exogenous TGF-β: exogenous TGF-β delivered as 200 μg of pCMV-TGF-β1”, in the experiment with NOD mouse (Exogenous TGF-β, Piccirillo 1998, 9-32 wks, 200 μg of pCMV-TGF-β1 every 2 wks, at 32 wks, vs 100% control), the Incidence is listed as 42% vs. 100% control at 32 wks. Also, the Insulitis entry in the experiment with NOD mouse (Exogenous TGF-β, Piccirillo 1998) is “Reduced severity of insulitis”. The Other observations result in the experiment with NOD mouse (Exogenous TGF-β, Piccirillo 1998, islet mRNA levels) is “Reduced mRNA levels of islet IL-12 & IFN-γ”.

On to IFN-α, for which the “Protection in the NOD mouse” value in the experiment with NOD mouse is recorded as “protective”.

On to “Oral insulin: orally administered (porcine) insulin for induction of oral tolerance”, for which the Protection from diabetes entry with BB rats was “not”; in the experiment with NOD mouse it was “protection”. The Incidence with NOD mouse (Oral insulin, Homann 1999 (1 mg), Rx 5-45 weeks, at 45 weeks, vs 63% control) is on record as 26% treated vs; in the experiment with NOD mouse (Oral insulin, Zhang 1991 (0.1 mg), Rx 5-52 weeks, at 52 weeks, vs 49% control), 44% treated vs; in the experiment on NOD mouse (Oral insulin, Zhang 1991 (1 mg), Rx 5-52 weeks, at 52 weeks, vs 49% control), 26% treated vs. For the same molecule, the Protection against diabetes entry in the experiment on NOD mouse (oral administration of insulin, induction of oral tolerance) is “protect against diabetes”. Also, the “Expected virtual mouse outcome” value in experiment [1] (Oral insulin, Homann 1999 (1 mg), at 45 weeks) is listed as “No diabetes at 45”; in experiment [1] (Oral insulin, Zhang 1991 (1 mg), at 52 weeks), “No diabetes at 52 weeks”.

On to “hOKT3γ1 (Ala-Ala): modified, dimeric non-FcR binding anti CD3 antibody used in human clinical trials”, for which the “Human clinical trial results” value in experiment [2] (recent onset diabetic patients, Herold 2002) was “promising”.

“insulin: insulin tolerization therapy tested in human clinical trials”: the Therapeutic response entry in experiment [2] (general clinical trial population) is recorded as “responded poorly”; in experiment [2] (patients characterized by high insulin autoantibody titers), “better therapeutic responses”.

For the molecule poly(I:C), in the experiment on NOD mouse, the “Protection in the NOD mouse” value is “protective”.
